Experimental data from PMC10796436, “Peptidyl nitroalkene inhibitors of main protease rationalized by computational and crystallographic investigations as antivirals against SARS-CoV-2” (Communications Chemistry, 2024).
“And” between values parts separate entries of the source, which are not always exact repeats. Equal values may be shown once.

Experiments:
bovine trypsin = target: T1, bovine trypsin (Bos taurus, UniProt P00760); assay type: biochemical; settings: 20 μM
T1 construct: purchased Sigma-Aldrich
T1 sequence (P00760 24-246): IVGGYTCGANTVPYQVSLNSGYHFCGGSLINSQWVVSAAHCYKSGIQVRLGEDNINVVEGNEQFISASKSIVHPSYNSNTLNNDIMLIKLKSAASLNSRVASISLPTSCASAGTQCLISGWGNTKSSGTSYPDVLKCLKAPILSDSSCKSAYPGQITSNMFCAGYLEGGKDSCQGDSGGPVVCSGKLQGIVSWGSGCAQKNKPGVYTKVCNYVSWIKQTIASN

Huh-7-ACE2 cells = settings: 24h
[1] = Stability in TRIS buffer pH 7.5 by LCMS (warhead hydration); assay type: physicochemical
Description: (50 mM, pH 7.5), stored at ca. 30 °C and repeatedly analyzed by LCMS (stability in buffer). […]
Analysis was performed using Mestrenova. LCMS setup: Agilent 1100 series HPLC system coupled to an Agilent 1100 series LC/MSD Trap with electron spray ionization (ESI) , Agilent Poroshell 120 EC-C18, 150x2.10 mm, 4 μm column. A linear gradient was used for elution with a ternary pump using [water/ACN/water + 0.1% formic acid] that changes ratios from 80/10/10 to 0/90/10 over the course of 10 min (0.7 mL/min). Areas of peaks in the chromatogram (detection-λ = 326 nm) were used to calculate the change in concentrations. Retention time and mass spectrum recorded in positive ionization mode were used to assign species.
In preparation of experiments with longer incubation periods (metabolic stability, permeability etc.), first general stability in aqueous systems is to be assessed. For this, a TRIS/HCl buffer system at physiological pH was chosen.
In all measurements, only two relevant “species” of FGA146 are identifiable by mass spectrometry: m/z[M+H2O+H]+ = 504 with tR = 4.8 min and m/z[M+H]+ = 486 with tR = 5.1 min.
For quantification by UV AUC, 326 nm is used as detection wavelength. Wavelengths ≤255 nm are unsuitable since extinction coefficients of free and hydrated warhead seem to vastly differ.
Table 10. […] For exemplary depiction of chromatograms that were used to generate this table, compare Figure SX below. […]
tR = 4.8 min tR = 5.1 min m/z[M+H2O+H]+ = 504 m/z[M+H]+ = 486

DNMT2 = target: T2, DNMT2 (Homo sapiens, UniProt O14717); assay: DNMT2 MST-displacement assay; assay type: binding; settings: 100 μM
T2 sequence (O14717 1-391): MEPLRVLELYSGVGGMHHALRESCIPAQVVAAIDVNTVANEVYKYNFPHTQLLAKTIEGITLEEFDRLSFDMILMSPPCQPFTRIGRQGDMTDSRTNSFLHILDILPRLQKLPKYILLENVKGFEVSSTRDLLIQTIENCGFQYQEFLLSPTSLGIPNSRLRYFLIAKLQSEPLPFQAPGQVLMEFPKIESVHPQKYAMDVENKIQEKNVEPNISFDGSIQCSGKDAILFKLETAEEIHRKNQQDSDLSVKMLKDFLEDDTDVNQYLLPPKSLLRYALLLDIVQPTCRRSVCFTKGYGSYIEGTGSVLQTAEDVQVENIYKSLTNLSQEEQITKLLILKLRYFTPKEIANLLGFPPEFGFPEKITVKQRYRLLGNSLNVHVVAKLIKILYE
Description: DNMT2 MST-Displacement Assay. Assay was conducted according to literature 59. The average of quadruple measurements is depicted for two independent measurements each. The positive control was measured without DNMT2 to detect totally unbound FTAD, additionally Sinefungin (SFG), a literature described DNMT2 inhibitor, was used as a second positive control. SFG and FGA146 concentrations in this assay were 100 µM each.
Figure 26. Microscale Thermophoresis displacement experiment against DNMT2.
Other potential off-targets. A search in ChEMBL database for the term “nitroalkene” gave the following papers (excluded 2 synthesis papers using nitroalkenes as reactants) - https://doi.org/10.1021/acsmedchemlett.6b00276: Nitroalkenes against rhodesain and cruzain - https://doi.org/10.1021/jm900326c: Nitroalkene fatty acids against PPARγ - https://doi.org/10.1016/j.ejmech.2012.08.013: Nitroalkene as head group against minor groove binders (anti-infective)
Results one and three are irrelevant due to different organisms as targets. Restult 2 is unlikely to be important, as fatty acid structure deviates from peptidic structure of inhibitors under investigation […]

[2] = logP determination by HPLC; assay type: physicochemical; settings: HPLC retention time
Description: experimental logP was determined. After unsuccessful evaluation by a classical extraction method
for determination, an HPLC-based estimation of hydrophobicity by retention time was utilized.
Following a publication60, a set of 9 compounds was chosen for preparing a calibration curve of
hydrophobicity indices and logPs.
λ = 254 nm, n = 1). Calibration of hydrophobicity was performed with a mixture of thiourea (Merck
Fisher Scientific, A12727.AP), Indole (Sigma Aldrich, W259306), Butyrophenone (Merck
1 mg/mL each in 50:50 [50 mM NH4OAc buffer pH 7.2/ACN]60 (n = 1). Analysis was performed
was used for elution with a binary pump using [50 mM NH4OAc buffer pH 7.2/ACN] (1 mL/min):
For calculation of unknown logP with this method, the following equation is used:
Signals at 6 and >14 min are due to impurities from
column that are detected in all measurements and are therefore not taken into account.

Structure (SMILES): COc1cccc2[nH]c(C(=O)N[C@@H](CC(C)C)C(=O)N[C@H](/C=C/[N+](=O)[O-])C[C@@H]3CCNC3=O)cc12 [FGA146]
- relative activity compared to the DMSO control (bovine trypsin): 112.5±16.9%
- CC50 (Huh-7-ACE2 cells): > 100 µM
- equilibrium hydrated to free warhead ([1]; TRIS buffer pH 7.5, ca. 30 °C): 85/15
- time to 50% conversion to hydrated warhead ([1]; TRIS buffer pH 7.5, ca. 30 °C): 1 h
- time until hydration equilibrium is reached ([1]; TRIS buffer pH 7.5, ca. 30 °C): 4 h
- AUCpeak1/AUCTotal (hydrated, m/z 504) ([1]; t 0 h): 10%
- AUCpeak2/AUCTotal (intact, m/z 486) ([1]; t 0 h): 90%
- AUCpeak1/AUCTotal (hydrated, m/z 504) ([1]; t 0.25 h): 20%
- AUCpeak2/AUCTotal (intact, m/z 486) ([1]; t 0.25 h): 80%
- AUCpeak1/AUCTotal (hydrated, m/z 504) ([1]; t 0.5 h): 34%
- AUCpeak2/AUCTotal (intact, m/z 486) ([1]; t 0.5 h): 66%
- AUCpeak1/AUCTotal (hydrated, m/z 504) ([1]; t 1 h): 47% and 53%
- AUCpeak2/AUCTotal (intact, m/z 486) ([1]; t 1 h): 47% and 53%
- AUCpeak1/AUCTotal (hydrated, m/z 504) ([1]; t 3 h): 78%
- AUCpeak2/AUCTotal (intact, m/z 486) ([1]; t 3 h): 22%
- AUCpeak1/AUCTotal (hydrated, m/z 504) ([1]; t 4 h): 83%
- AUCpeak2/AUCTotal (intact, m/z 486) ([1]; t 4 h): 17%
- AUCpeak1/AUCTotal (hydrated, m/z 504) ([1]; t 5 h): 85%
- AUCpeak2/AUCTotal (intact, m/z 486) ([1]; t 5 h): 15%
- AUCpeak1/AUCTotal (hydrated, m/z 504) ([1]; t 7 h): 85%
- AUCpeak2/AUCTotal (intact, m/z 486) ([1]; t 7 h): 14%
- AUCpeak1/AUCTotal (hydrated, m/z 504) ([1]; t 30 h): 83%
- AUCpeak2/AUCTotal (intact, m/z 486) ([1]; t 30 h): 14%
- AUCpeak1/AUCTotal (hydrated, m/z 504) ([1]; t 31 h): 83%
- AUCpeak2/AUCTotal (intact, m/z 486) ([1]; t 31 h): 14%
- conversion to hydrated warhead ([1]; time to LCMS (<10 min)): 10%
- displacement of FTAD from DNMT2 (DNMT2): non-binder
- logPexp [2]: 2.0
